From patent US12473294B2, “Selective modulators of mutant LRRK2 proteolysis and associated methods of use” (Arvinas Operations, Inc., priority 2020, dated 2025) come the findings set out here.

In assay [1] the target is T1, G2019S LRRK2 (Homo sapiens, UniProt Q5S007, G2019S).
T1 construct: expressed in transfected cells; host or cells: HEK293 (ATCC CRL-1573)
Nature of the assay: LRRK2 degradation HiBit assay, G2019S LRRK2 tagged with a HiBit tag expressed in HEK293 cells. The assay is classed as cell-based. Conditions: 24 hours compound incubation; for Dmax: HEK293, HEK293 cells; for DC50: HEK293 cells. As to the method: The assay measures the degradation of wildtype and G2019S LRRK2 tagged with a HiBit tag on the C-terminus of the protein that was expressed from a mammalian expression vector, driven by the ubiquitin promoter in HEK293 cells. Each compound dose-response was repeated on three separate days, on three separate plates each day.
(§1) Plasmid Preparation. Transfection mixes were assembled as follows and incubated for 30 minutes at room temperature. In a 15 mL tube, 5.25 mL Opti-MEM (no additions) was mixed with 17 μL Firefly Luciferase plasmid at 1 μg/μL and 158 μL WT plasmid DNA at 1 μg/μL (175 μg total DNA) were mixed by flicking. In a new 15 mL tube, 5.25 mL OptiMEM was mixed with 17 μL Firefly Luciferase plasmid at 1 μg/μL and 158 μL G2019S plasmid DNA at 1 μg/μL (175 μg total DNA) were mixed by flicking. X-tremeGene HP was mixed thoroughly using a vortex. Next, 175 μL was added to each tube and flicked to mix. Both tubes were left to incubate for 30 minutes at room temperature.
While the transfection mixes were incubating, HEK293 cells acquired from ATCC (ATCC CRL-1573) were harvested with trypsin. Once cells are detached, the cells were resuspended in 12 mL OptiMEM+5% FBS and transferred to a 50 mL tube. The cells were mixed well and counted. Using OptiMEM+5% FBS, the cells were diluted in two 250 mL conical tubes at 0.71×10^6 cells/mL in 70 mL. One tube was labeled “WT” and the other “G2019S”. The WT and G2019S transfection mixes were added dropwise to the corresponding 250 mL tubes. The tubes were mixed first by pipetting then by swirling. The tubes were incubated at room temperature for at least 5 minutes.
(§2) Each tube was swirled before dispensing and after every three plates. Seventy microliters of cells were dispensed with WT or G2019S DNA to seven plates each. Three plates of each were tested with compound plate one (preparation described below) and three plates of each were tested with compound plate two (preparation described below). The first plate from each set served as a “prime” plate and was not used to test compounds. Each plate was incubated in the hood for 10 minutes before placing in the 37° C. incubator for 24 hours.
(§3) Preparation of Compound and Assay Plates. Two compound plates were made using 96 well polypropylene plates. Compounds were made up at 10 mM and were diluted to 1 mM in 30 μL. Each dose response curve included a well of DMSO, as a negative control and for normalization, and a well of 0.5 μM of Exemplary Compound 4 as a positive control. In addition to seven test compounds, each plate also included a dose response of Exemplary Compound 4. The compound plates were spun down along at 1200 rpm for 2 minutes.
(§4) The two compound plates were then mixed and 2 μL was diluted in intermediate plates having 248 μL of Opti-Mem in each well. Next, 10 μL diluted compounds from the intermediate plates were added to each test plate (three WT and three G2019S plates per compound plate for a total of 12 assay plates). The plates were incubated for 24 hours at 37° C.
(§5) All assay plates and all Nano-Glo Dual-Luciferase Reporter Assay System components (except for the DLR substrate) were equilibrated to room temperature. Next, the luciferase buffer was mixed with the lyophilized amber bottle until fully dissolved, and 75 μL of the luciferase mixture was added to each well of each assay plate. The assay plates were incubated for 10 minutes at room temperature with shaking for at least 5 minutes, and then read on a plate reader.
(§6) Developing Plates and Analyzing Data. One milliliter of DLR substrate and 1 mL LgBiT Protein were added to the Stop and Glo buffer, and 75 μL of the mixture was added to each well of each plate. Optically clear seals were added to each plate and each plate was incubated for 20 minutes with shaking for at least 10 minutes, and then read on a plate reader. […]

Assay [2] has as its target T2, wildtype LRRK2 (Homo sapiens, UniProt Q5S007).
T2 construct: endogenous in cells; host or cells: HEK293 with HiBit knocked in at the 3' end of the endogenous LRRK2 gene, stably expressing firefly luciferase
The assay is described as follows: LRRK2 degradation HiBit assay, wildtype LRRK2 tagged with a HiBit tag in HEK293 cells. Conditions: 24 hours compound incubation; for Dmax: read-out: ** WT Dmax (%); for DC50: read-out: *WT DC50. The format is cell-based. As to the method: The assay measures the degradation of wildtype and G2019S LRRK2 tagged with a HiBit tag on the C-terminus of the protein that was expressed from a mammalian expression vector, driven by the ubiquitin promoter in HEK293 cells. Each compound dose-response was repeated on two separate days, on three separate plates each day.
as §1
While the transfection mixes were incubating, HEK293 cells (acquired from ATCC; ATCC CRL-1573) were harvested with trypsin. Once cells are detached, the cells were resuspended in 12 mL OptiMEM+5% FBS and transferred to a 50 mL tube. The cells were mixed well and counted. Using OptiMEM+5% FBS, the cells were diluted in two 250 mL conical tubes at 0.71×10^6 cells/mL in 70 mL. One tube was labeled “WT” and the other “G2019S”. The WT and G2019S transfection mixes were added dropwise to the corresponding 250 mL tubes. The tubes were mixed first by pipetting then by swirling. The tubes were incubated at room temperature for at least 5 minutes.
as §2, §3, §4, §5, §6

T1 sequence (Q5S007 whole entry G2019S): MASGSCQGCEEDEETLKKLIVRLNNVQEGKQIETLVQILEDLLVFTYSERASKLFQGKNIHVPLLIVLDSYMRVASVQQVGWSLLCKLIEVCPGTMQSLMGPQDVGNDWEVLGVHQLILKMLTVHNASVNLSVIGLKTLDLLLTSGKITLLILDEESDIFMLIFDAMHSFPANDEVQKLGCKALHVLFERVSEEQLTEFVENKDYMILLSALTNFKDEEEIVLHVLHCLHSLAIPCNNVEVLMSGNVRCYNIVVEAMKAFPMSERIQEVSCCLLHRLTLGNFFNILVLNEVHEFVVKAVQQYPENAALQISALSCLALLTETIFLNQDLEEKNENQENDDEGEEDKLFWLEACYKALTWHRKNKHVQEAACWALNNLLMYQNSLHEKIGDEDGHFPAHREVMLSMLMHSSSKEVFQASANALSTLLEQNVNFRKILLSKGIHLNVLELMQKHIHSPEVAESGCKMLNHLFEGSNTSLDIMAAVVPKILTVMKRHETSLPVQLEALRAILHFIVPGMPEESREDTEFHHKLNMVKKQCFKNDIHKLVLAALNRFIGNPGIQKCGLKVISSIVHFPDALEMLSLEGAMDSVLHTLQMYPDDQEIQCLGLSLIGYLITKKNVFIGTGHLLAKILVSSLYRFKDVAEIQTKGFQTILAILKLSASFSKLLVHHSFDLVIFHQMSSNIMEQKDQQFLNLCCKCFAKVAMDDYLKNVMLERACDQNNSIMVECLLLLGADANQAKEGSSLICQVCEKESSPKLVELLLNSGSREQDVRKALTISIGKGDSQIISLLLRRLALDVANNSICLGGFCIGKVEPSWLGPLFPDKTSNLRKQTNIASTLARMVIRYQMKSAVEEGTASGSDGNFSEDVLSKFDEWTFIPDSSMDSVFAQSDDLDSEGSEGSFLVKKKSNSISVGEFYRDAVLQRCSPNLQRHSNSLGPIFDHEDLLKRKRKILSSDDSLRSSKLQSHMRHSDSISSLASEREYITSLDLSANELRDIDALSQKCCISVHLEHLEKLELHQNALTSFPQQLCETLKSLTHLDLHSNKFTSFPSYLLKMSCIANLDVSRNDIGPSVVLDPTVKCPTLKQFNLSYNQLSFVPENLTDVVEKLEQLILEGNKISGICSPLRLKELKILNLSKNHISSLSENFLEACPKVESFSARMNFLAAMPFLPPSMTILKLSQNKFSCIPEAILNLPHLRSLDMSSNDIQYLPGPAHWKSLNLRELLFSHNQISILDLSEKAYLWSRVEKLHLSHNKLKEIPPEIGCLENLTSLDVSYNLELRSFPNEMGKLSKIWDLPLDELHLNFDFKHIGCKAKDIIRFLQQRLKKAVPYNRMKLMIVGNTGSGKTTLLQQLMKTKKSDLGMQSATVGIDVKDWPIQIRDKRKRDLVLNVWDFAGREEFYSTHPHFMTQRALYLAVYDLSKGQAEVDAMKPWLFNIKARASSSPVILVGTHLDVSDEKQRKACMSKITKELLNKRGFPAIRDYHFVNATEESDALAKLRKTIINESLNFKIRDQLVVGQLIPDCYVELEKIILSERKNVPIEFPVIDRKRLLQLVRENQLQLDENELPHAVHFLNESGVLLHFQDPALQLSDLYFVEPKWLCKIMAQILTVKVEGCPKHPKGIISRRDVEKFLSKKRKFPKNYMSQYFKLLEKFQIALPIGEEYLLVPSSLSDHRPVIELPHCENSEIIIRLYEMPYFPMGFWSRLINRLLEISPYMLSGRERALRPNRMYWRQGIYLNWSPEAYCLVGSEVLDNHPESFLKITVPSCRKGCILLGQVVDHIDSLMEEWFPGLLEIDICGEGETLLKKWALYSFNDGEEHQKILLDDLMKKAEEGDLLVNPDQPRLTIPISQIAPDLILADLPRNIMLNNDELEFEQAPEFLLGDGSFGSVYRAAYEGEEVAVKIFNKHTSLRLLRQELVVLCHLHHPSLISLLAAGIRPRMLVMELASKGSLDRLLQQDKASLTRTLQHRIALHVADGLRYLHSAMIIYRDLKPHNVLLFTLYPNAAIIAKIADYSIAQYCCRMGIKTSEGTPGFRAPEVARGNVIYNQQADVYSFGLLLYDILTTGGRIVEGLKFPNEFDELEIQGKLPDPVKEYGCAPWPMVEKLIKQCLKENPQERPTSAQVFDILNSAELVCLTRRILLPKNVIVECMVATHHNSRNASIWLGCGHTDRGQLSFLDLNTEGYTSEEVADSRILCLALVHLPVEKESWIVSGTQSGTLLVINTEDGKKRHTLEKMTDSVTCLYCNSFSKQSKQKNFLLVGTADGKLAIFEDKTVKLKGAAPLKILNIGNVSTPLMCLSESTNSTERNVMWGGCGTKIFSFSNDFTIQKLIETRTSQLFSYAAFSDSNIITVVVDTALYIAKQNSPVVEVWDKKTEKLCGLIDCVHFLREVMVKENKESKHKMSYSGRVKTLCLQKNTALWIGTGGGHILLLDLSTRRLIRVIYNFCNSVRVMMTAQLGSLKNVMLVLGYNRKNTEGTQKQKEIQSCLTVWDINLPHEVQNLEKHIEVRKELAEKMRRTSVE
T2 sequence (Q5S007 whole entry): as the sequence (Q5S007 whole entry G2019S) above, with S2019G counted along it

What is called Dmax is the greatest extent of degradation seen. One may read the DC50 as the midpoint of the concentration-degradation curve. `CC1=C(C(=O)Nc2ccc3[nH]nc(-c4ccnc(N5CCN(CC6CCN(CC7CCN(c8ccc9c(c8)C(=O)N(C8CCC(=O)NC8=O)C9=O)CC7)CC6)[C@@H](C)C5)c4)c3c2)[C@@H](C)n2nnnc2N1C` (single isomer, unassigned) [compound 8]: the Dmax in assay [1] and in assay [2] was 50 to 70% in each case. In addition, the DC50 in assay [1] was under 0.01 µM; in assay [2] it was 0.01 to 0.05 µM.
In assay [1], `CC1=C(C(=O)Nc2ccc3[nH]nc(-c4ccnc(N5CCN(CC6CCN(CC7CCN(c8ccc9c(c8)C(=O)N(C8CCC(=O)NC8=O)C9=O)CC7)CC6)[C@@H](C)C5)c4)c3c2)[C@H](C)n2nnnc2N1C` (single isomer, unassigned) [compound 9] gave a Dmax of 50 to 70% and a DC50 of 0.05 to 0.1 µM. Moreover, in assay [2], the Dmax was under 50% and the DC50 is at least 0.1 µM.
In the same order, the values of `CC1=C(C(=O)Nc2ccc3[nH]nc(-c4ccnc(N5C[C@@H](C)N(CC6CCN(CC7CCN(c8ccc9c(c8)C(=O)N(C8CCC(=O)NC8=O)C9=O)CC7)CC6)[C@@H](C)C5)c4)c3c2)Cn2nnnc2N1C` (stereo partly drawn) [compound 1, N-(3-(2-((3S,5R)-4-((1-((1-(2-(2,6-dioxopiperidin-3-yl)-1,3-dioxoisoindolin-5-yl)piperidin-4-yl)methyl)piperidin-4-yl)methyl)-3,5-dimethylpiperazin-1-yl)pyridin-4-yl)-1H-indazol-5-yl)-4,5-dimethyl-4,7-dihydrotetrazolo[1,5-a]pyrimidine-6-carboxamide] are 50 to 70%, under 0.01 µM, 50 to 70% and 0.01 to 0.05 µM.
In the same order, the values of `CC1=C(C(=O)Nc2ccc3[nH]nc(-c4ccnc(N5C[C@@H](C)N(CC6CCN(CC7CCN(c8ccc9c(c8)C(=O)N(C8CCC(=O)NC8=O)C9=O)CC7)CC6)[C@@H](C)C5)c4)c3c2)C(C)n2nnnc2N1C` (stereo partly drawn) [compound 2, N-(3-(2-((3S,5R)-4-((1-((1-(2-(2,6-dioxopiperidin-3-yl)-1,3-dioxoisoindolin-5-yl)piperidin-4-yl)methyl)piperidin-4-yl)methyl)-3,5-dimethylpiperazin-1-yl)pyridin-4-yl)-1H-indazol-5-yl)-4,5,7-trimethyl-4,7-dihydrotetrazolo[1,5-a]pyrimidine-6-carboxamide] are 50 to 70%, under 0.01 µM, 50 to 70% and 0.01 to 0.05 µM.
As for `CC1=C(C(=O)Nc2ccc3[nH]nc(-c4ccnc(N5C[C@@H](C)N(CCOCCN6CCN(c7ccc8c(c7)C(=O)N(C7CCC(=O)NC7=O)C8=O)CC6)[C@@H](C)C5)c4)c3c2)Cn2nnnc2N1C` (stereo partly drawn) [compound 3, N-(3-(2-((3R,5S)-4-(2-(2-(4-(2-(2,6-dioxopiperidin-3-yl)-1,3-dioxoisoindolin-5-yl)piperazin-1-yl)ethoxy)ethyl)-3,5-dimethylpiperazin-1-yl)pyridin-4-yl)-1H-indazol-5-yl)-4,5-dimethyl-4,7-dihydrotetrazolo[1,5-a]pyrimidine-6-carboxamide], the DC50 in assay [1] and in assay [2] was at least 0.1 µM each time.
Turning to `CC1=C(C(=O)Nc2ccc3[nH]nc(-c4ccnc(N5C[C@@H](C)N(CCOCCOCCN6CCN(c7ccc8c(c7)C(=O)N(C7CCC(=O)NC7=O)C8=O)CC6)[C@@H](C)C5)c4)c3c2)Cn2nnnc2N1C` (stereo partly drawn) [compound 4, N-(3-(2-((3R,5S)-4-(2-(2-(2-(4-(2-(2,6-dioxopiperidin-3-yl)-1,3-dioxoisoindolin-5-yl)piperazin-1-yl)ethoxy)ethoxy)ethyl)-3,5-dimethylpiperazin-1-yl)pyridin-4-yl)-1H-indazol-5-yl)-4,5-dimethyl-4,7-dihydrotetrazolo[1,5-a]pyrimidine-6-carboxamide], the 50% degradation concentration (DC50) in assay [1] and in assay [2] was at least 0.1 µM in each case.
For `CC1=C(C(=O)Nc2ccc3[nH]nc(-c4ccnc(N5C[C@@H](C)N(CCN6CCN(c7ccc8c(c7)C(=O)N(C7CCC(=O)NC7=O)C8=O)CC6)[C@@H](C)C5)c4)c3c2)Cn2nnnc2N1C` (stereo partly drawn) [compound 5, N-(3-(2-((3R,5S)-4-(2-(4-(2-(2,6-dioxopiperidin-3-yl)-1,3-dioxoisoindolin-5-yl)piperazin-1-yl)ethyl)-3,5-dimethylpiperazin-1-yl)pyridin-4-yl)-1H-indazol-5-yl)-4,5-dimethyl-4,7-dihydrotetrazolo[1,5-a]pyrimidine-6-carboxamide], in assay [1], the Dmax is under 50% and the DC50 is at least 0.1 µM. The DC50 in assay [2] was at least 0.1 µM.
In the case of `CC1=C(C(=O)Nc2ccc3[nH]nc(-c4ccnc(N5C[C@@H](C)N(CC6CCN(CC7CCN(c8ccc9c(c8)C(=O)N(C8CCC(=O)NC8=O)C9=O)CC7)CC6)[C@@H](C)C5)c4)c3c2)C(C)(C)n2nnnc2N1C` (stereo partly drawn) [compound 6, N-(3-(2-((3S,5R)-4-((1-((1-(2-(2,6-dioxopiperidin-3-yl)-1,3-dioxoisoindolin-5-yl)piperidin-4-yl)methyl)piperidin-4-yl)methyl)-3,5-dimethylpiperazin-1-yl)pyridin-4-yl)-1H-indazol-5-yl)-4,5,7,7-tetramethyl-4,7-dihydrotetrazolo[1,5-a]pyrimidine-6-carboxamide], the Dmax in assay [1] and in assay [2] was under 50% each time. For the same molecule, the DC50 is 0.01 to 0.05 µM in assay [1] and at least 0.1 µM in assay [2].
In assay [1], `CC1=C(C(=O)Nc2ccc3[nH]nc(-c4ccnc(N5CCN(CC6CCN(CC7CCN(c8ccc9c(c8)C(=O)N(C8CCC(=O)NC8=O)C9=O)CC7)CC6)[C@@H](C)C5)c4)c3c2)Cn2nnnc2N1C` (stereo partly drawn) [compound 10, N-(3-(2-((S)-4-((1-((1-(2-(2,6-dioxopiperidin-3-yl)-1,3-dioxoisoindolin-5-yl)piperidin-4-yl)methyl)piperidin-4-yl)methyl)-3-methylpiperazin-1-yl)pyridin-4-yl)-1H-indazol-5-yl)-4,5-dimethyl-4,7-dihydrotetrazolo[1,5-a]pyrimidine-6-carboxamide] yielded a Dmax of 50 to 70% and a DC50 of under 0.01 µM. In assay [2], the Dmax fell in the range of 50 to 70% and the 50% degradation concentration (DC50) was 0.01 to 0.05 µM.
In assay [1], `CC1=C(C(=O)Nc2ccc3[nH]nc(-c4ccnc(N5CCN(CC6CCN(CC7CCN(c8ccc9c(c8)C(=O)N(C8CCC(=O)NC8=O)C9=O)CC7)CC6)CC5)c4)c3c2)[C@@H](C)n2nnnc2N1C` (stereo partly drawn) [compound 11, (7R)-N-(3-(2-(4-((1-((1-(2-(2,6-dioxopiperidin-3-yl)-1,3-dioxoisoindolin-5-yl)piperidin-4-yl)methyl)piperidin-4-yl)methyl)piperazin-1-yl)pyridin-4-yl)-1H-indazol-5-yl)-4,5,7-trimethyl-4,7-dihydrotetrazolo[1,5-a]pyrimidine-6-carboxamide] gave a Dmax of under 50% and a DC50 of 0.01 to 0.05 µM. In addition, in assay [2], the Dmax is under 50% and the 50% degradation concentration (DC50) was in the range of 0.05 to 0.1 µM.
